From patent publication US7148253B2, “4-thio coumarins” (priority 2002, dated 2006)
Several values for one entry are separate records, joined by “and”; a condition that tells them apart may be missing. Equal values may be shown once. Read-outs that look alike come from different tables or passages of the source.

Legend:
[1] = system: HCV replicons in AVA5 cell cultures; experiment: Secondary in vitro anti-HCV dose-response assay: intracellular HCV RNA; set-up: Intracellular HCV RNA Levels: dose or concentration left out as unconfirmed; conditions: for Intracellular HCV RNA Levels: normalized to β-actin RNA
Experimental: (§1) Dividing cultures of AVA5 cells are treated once daily for three days (media is changed with each addition of compound) with 4 concentrations of test compound (2 cultures per concentration). […] Intracellular HCV RNA levels and cytotoxicity are assessed 24 hours following the last treatment as described for the primary assays. The 50% and 90% effective antiviral concentrations (EC50, EC90) and the 50% cytotoxic concentrations (CC50) are calculated and used to generate Selectivity Indexes (S.I., CC50/EC50). An S.I of 10, or greater, may be considered to be a selective antiviral effect.
(§2) The values presented in Table 6 were calculated by linear regression analysis using data from all treated cultures. The standard deviation was calculated using the error of regression generated from the linear regression analysis.
Analysis of intracellular HCV RNA was performed 24 hours following the final treatment. A total of […] were treated a each concentration for each compound. HCV RNA levels were normalized to the level of β-actin RNA in each individual sample.

[2] = Secondary dose-response assay: cytotoxicity (CC50); conditions: human
Experimental: as §1, §2

[3] = Primary screen cytotoxicity: neutral red dye uptake; type: cell-based, human; conditions: human; toxicity control, no antiviral activity; read-out: approximate CC90
Experimental: (§3) Primary in vitro anti-HCV screen. The antiviral activity of test compounds were assayed in the stably HCV RNA-replicating cell line, AVA5, derived by transfection of the human hepatoblastoma cell line, Huh7 (Blight, et al., 2000, Science 290: 1972). The test compounds were added to dividing cultures once daily for three days. The media was changed with each addition of the compounds. Cultures generally start the assay at 30–50% confluence and reach confluence during the last day of treatment.
(§4) Assays were conducted using a single dose of test compound. Duplicate cultures for HCV RNA levels (on 48-well plates) and triplicate cultures for cytotoxicity (on 96-well plates) are used.
(§5) Intracellular HCV RNA levels were measured using a commercial assay (Veresant®, Bayer Diagnostics, Inc. Ross, et al. (2002) J. Virol. Meth. 101:159–168, Quantitation of hepatitic C virus RNA by third generation branched DNA-based signal amplification assay). Cytotoxicity was measured using an established neutral red dye uptake assay (Korba, B. E. and J. L. Gerin. 1992. Use of a standardized cell culture assay to determine activities of nucleoside analogs against hepatitis B virus relication. Antivir. Res. 19:55–70). HCV RNA levels in the treated cultures are expressed as a percentage of the mean levels of RNA detected in untreated cultures. A level of 30% or less, HCV RNA relative to control cultures may be considered to be a positive antiviral effect. A level of 50% or less, neutral red dye uptake relative to control cultures may be considered to be a cytotoxic effect.

[4] = system: AVA5 cell line (derived from human hepatoblastoma cell line Huh7); experiment: as above; type: cell-based; conditions: for Neutral Red % Control / Neutral Red O.D.: AVA5
Experimental: as §3, §4, §5

[5] = system: HCV RNA in stably HCV RNA-replicating cell line AVA5; experiment: Primary in vitro anti-HCV screen: intracellular HCV RNA levels in AVA5 cells (branched DNA assay); type: cell-based, Hepatitis C virus; conditions: for HCV % Control / HCV Copies/ml: AVA5, duplicate cultures; for effect on HCV RNA (treatment controls, in words): at the control concentrations used
Experimental: as §3, with “compounds. […] Intracellular HCV RNA levels” for “compounds. Cultures generally start the assay at 30–50% confluence”, “and cytotoxicity are assessed 24 hours after” for “and reach confluence during”, “last dose” for “last day”, “of compound.” for “of treatment.”
as §4, §5

[6] = system: HCV RNA-replicating cell line AVA5; experiment: Normalized Viral Assay; type: cell-based, Hepatitis C virus
Experimental: as §3

AVA5 cells = experiment: Secondary dose-response assay: cytotoxicity (CC50)
Experimental: as §1, §2

AVA5 cell line [7] = experiment: MTS Cell Viability
AVA5 cell line [8] = experiment: ATP Cell Viability
[9] = AVA5, HCV RNA, linear regression
[10] = AVA5, three days treatment, linear regression
[11] = AVA5, values for α-interferon in IU/ml

## NC(=O)c1ncn([C@@H]2O[C@H](CO)[C@@H](O)[C@H]2O)n1 [Ribavirin, ribavirin, reference compound]
[1]; 10
  Intracellular HCV RNA Levels: 1379495 ± 69125 genomic copies/cell
[1]; 30
  Intracellular HCV RNA Levels: 640505 ± 29715 genomic copies/cell
[1]; 100
  Intracellular HCV RNA Levels: 250445 ± 5015 genomic copies/cell
[1]; Hepatitis C virus, Ava5
  EC50: 29 ± 2.5 µM
  EC90: 140 ± 11 µM
[1]; selectivity index, AVA5
  S.I. (CC50/EC90): 1.9
[2]
  CC50 at 3 days: 54 ± 2.4 µM
[3]
  CC90 at 3 days: ~100 µM
[4]; 100 μM
  Neutral Red % Control: 18 % Control and 17 % Control
  Neutral Red O.D.: 0.394 O.D. and 0.378 O.D.
[4]; compared with the loss of HCV RNA
  effect on cell viability (treatment control, in words): reduction in cell viability was nearly equivalent
[5]; 100 μM
  HCV % Control: 13 % Control and 9 % Control
  HCV Copies/ml: 180813 Copies/ml and 115331 Copies/ml
[5]
  effect on HCV RNA (treatment controls, in words): induced loss of HCV RNA

## Cc1cc(C)cc(Sc2c(Sc3cccc(Cl)c3)c3ccccc3oc2=O)c1 [compound 468]
[1]
  S.I. (CC50/EC90): >250
[1]; 10
  Intracellular HCV RNA Levels: 1317765 ± 55645 genomic copies/cell
[1]; 30
  Intracellular HCV RNA Levels: 473805 ± 21625 genomic copies/cell
[1]; 100
  Intracellular HCV RNA Levels: 194410 ± 7620 genomic copies/cell
[1]; 300
  Intracellular HCV RNA Levels: 56535 ± 8005 genomic copies/cell
[1]; [9]
  EC50: 1.2 ± 0.1 µM
  EC90: 8.3 ± 0.6 µM
[6]; 1 μM
  Normalized Viral Assay: 72.14
[6]; 5 μM
  Normalized Viral Assay: 35.09
[6]; 10 μM
  Normalized Viral Assay: 18.06
AVA5 cells
  CC50: > 300 µM

## O=c1cc(Sc2cc(Cl)ccc2Cl)c2cc(F)ccc2o1 [compound 901]
AVA5 cell line [7]; 1 μM
  MTS Cell Viability: 107.32
AVA5 cell line [7]; 5 μM
  MTS Cell Viability: 97.37
AVA5 cell line [7]; 10 μM
  MTS Cell Viability: 86.10
[6]; 1 μM
  Normalized Viral Assay: 24.87
[6]; 5 μM
  Normalized Viral Assay: 12.80
[6]; 10 μM
  Normalized Viral Assay: 8.34
[4]; 10 μM, dye uptake relative to untreated cultures, listed as VQ_901
  Neutral Red % Control: 102 % Control and 100 % Control
[4]; 10 μM, listed as VQ_901
  Neutral Red O.D.: 2.287 O.D. and 2.241 O.D.
AVA5 cell line [8]; 1 μM
  ATP Cell Viability: 105.62
AVA5 cell line [8]; 5 μM
  ATP Cell Viability: 106.63
AVA5 cell line [8]; 10 μM
  ATP Cell Viability: 79.01
[5]; 10 μM, HCV RNA as percentage of untreated cultures
  HCV % Control: 63 % Control
[5]; 10 μM, once daily for three days, listed as VQ_901
  HCV Copies/ml: 851852 Copies/ml and 846803 Copies/ml

## O=c1cc(Sc2c(Cl)cccc2Cl)c2cc(F)ccc2o1 [compound 902]
[1]; 10
  Intracellular HCV RNA Levels: 919880 ± 44000 genomic copies/cell
[1]; 30
  Intracellular HCV RNA Levels: 332975 ± 6745 genomic copies/cell
[1]; 100
  Intracellular HCV RNA Levels: 91645 ± 7385 genomic copies/cell
[1]; 300
  Intracellular HCV RNA Levels: 12940 ± 5640 genomic copies/cell
[1]; [9]
  EC50: 0.491 ± 0.024 µM
  EC90: 5.2 ± 0.6 µM
[1]; selectivity index, AVA5
  S.I. (CC50/EC90): >611
AVA5 cell line [7]; 1 μM
  MTS Cell Viability: 116.05
AVA5 cell line [7]; 5 μM
  MTS Cell Viability: 86.70
AVA5 cell line [7]; 10 μM
  MTS Cell Viability: 84.52
[6]; 1 μM
  Normalized Viral Assay: 41.92
[6]; 5 μM
  Normalized Viral Assay: 12.03
[6]; 10 μM
  Normalized Viral Assay: 5.61
AVA5 cells; [10]
  CC50: > 300 µM
[4]; 10 μM, dye uptake relative to untreated cultures, listed as VQ_902
  Neutral Red % Control: 95 % Control and 100 % Control
[4]; 10 μM, listed as VQ_902
  Neutral Red O.D.: 2.122 O.D. and 2.228 O.D.
AVA5 cell line [8]; 1 μM
  ATP Cell Viability: 97.96
AVA5 cell line [8]; 5 μM
  ATP Cell Viability: 101.74
AVA5 cell line [8]; 10 μM
  ATP Cell Viability: 62.95
[5]; 10 μM, HCV RNA as percentage of untreated cultures, listed as VQ_902
  HCV % Control: 9 % Control and 7 % Control
[5]; 10 μM, once daily for three days, listed as VQ_902
  HCV Copies/ml: 124712 Copies/ml and 92446 Copies/ml

## O=c1cc(Sc2ccccc2F)c2cc(F)ccc2o1 [compound 904]
AVA5 cell line [7]; 1 μM
  MTS Cell Viability: 116.41
AVA5 cell line [7]; 5 μM
  MTS Cell Viability: 108.04
AVA5 cell line [7]; 10 μM
  MTS Cell Viability: 86.22
[6]; 1 μM
  Normalized Viral Assay: 50.52
[6]; 5 μM
  Normalized Viral Assay: 37.87
[6]; 10 μM
  Normalized Viral Assay: 9.27
[4]; 10 μM, dye uptake relative to untreated cultures, listed as VQ_904
  Neutral Red % Control: 100 % Control and 101 % Control
[4]; 10 μM, listed as VQ_904
  Neutral Red O.D.: 2.237 O.D. and 2.255 O.D.
AVA5 cell line [8]; 1 μM
  ATP Cell Viability: 107.54
AVA5 cell line [8]; 5 μM
  ATP Cell Viability: 100.32
AVA5 cell line [8]; 10 μM
  ATP Cell Viability: 74.11
[5]; 10 μM, HCV RNA as percentage of untreated cultures, listed as VQ_904
  HCV % Control: 79 % Control and 75 % Control
[5]; 10 μM, once daily for three days, listed as VQ_904
  HCV Copies/ml: 1072174 Copies/ml and 1013181 Copies/ml

## O=c1cc(Sc2ccc(F)cc2F)c2cc(F)ccc2o1 [compound 910]
[1]; 10
  Intracellular HCV RNA Levels: 1176970 ± 27620 genomic copies/cell
[1]; 30
  Intracellular HCV RNA Levels: 494605 ± 6235 genomic copies/cell
[1]; 100
  Intracellular HCV RNA Levels: 163575 ± 6325 genomic copies/cell
[1]; 300
  Intracellular HCV RNA Levels: 58165 ± 7635 genomic copies/cell
[1]; [9]
  EC50: 1.4 ± 0.1 µM
  EC90: 12 ± 1.1 µM
[1]; selectivity index, AVA5
  S.I. (CC50/EC90): >214
AVA5 cell line [7]; 1 μM
  MTS Cell Viability: 105.74
AVA5 cell line [7]; 5 μM
  MTS Cell Viability: 92.64
AVA5 cell line [7]; 10 μM
  MTS Cell Viability: 79.43
[6]; 1 μM
  Normalized Viral Assay: 32.93
[6]; 5 μM
  Normalized Viral Assay: 9.51
[6]; 10 μM
  Normalized Viral Assay: 3.41
AVA5 cells; [10]
  CC50: > 300 µM
[4]; 10 μM, dye uptake relative to untreated cultures, listed as VQ_910
  Neutral Red % Control: 99 % Control and 103 % Control
[4]; 10 μM, listed as VQ_910
  Neutral Red O.D.: 2.214 O.D. and 2.293 O.D.
AVA5 cell line [8]; 1 μM
  ATP Cell Viability: 115.34
AVA5 cell line [8]; 5 μM
  ATP Cell Viability: 97.48
AVA5 cell line [8]; 10 μM
  ATP Cell Viability: 84.78
[5]; 10 μM, HCV RNA as percentage of untreated cultures, listed as VQ_910
  HCV % Control: 20 % Control and 18 % Control
[5]; 10 μM, once daily for three days, listed as VQ_910
  HCV Copies/ml: 266217 Copies/ml and 246717 Copies/ml

## α-interferon
[1]; 1.0 IU/ml
  Intracellular HCV RNA Levels: 1169765 ± 37135 genomic copies/cell
[1]; 3.0 IU/ml
  Intracellular HCV RNA Levels: 329605 ± 26035 genomic copies/cell
[1]; 10 IU/ml
  Intracellular HCV RNA Levels: 103060 ± 14470 genomic copies/cell
[1]; [11]
  EC50: 1.8 ± 0.2^1 IU/ml
  EC90: 8.2 ± 0.6^1 IU/ml
[1]; selectivity index, AVA5
  S.I. (CC50/EC90): >5556
AVA5 cells; [11]
  CC50: >10000^1,2 IU/ml
[4]; 10 IU/ml, listed as rHu α-IFN
  Neutral Red % Control: 99 % Control and 103 % Control
  Neutral Red O.D.: 2.217 O.D. and 2.291 O.D.
[5]; 10 IU/ml, listed as rHu α-IFN
  HCV % Control: 5 % Control and 6 % Control
  HCV Copies/ml: 71460 Copies/ml and 85467 Copies/ml
[5]
  effect on HCV RNA (treatment controls, in words): induced significant depressions of HCV RNA replication
[5]; positive antiviral control, no cytotoxicity
  approximate EC90: ~10 IU/ml
